Data reported in US20240059703A1 (AMGEN INC., priority 2021, published 2024).

Tests used:
[1] = molecular target: KRAS G12C (Homo sapiens (Human), UniProt P01116, C118A/G12C); assay: 2 h coupled exchange assay; assay type: biochemical; details: Avg 2 h Coupled exchange IC50, 2 h compound pre-incubation
Protocol: The term “2 h coupled exchange assay” or “20 h coupled exchange assay” as used herein refers to the assay described in the Section entitled “BIOLOGICAL EVALUATION.”

[2] = system: A549 (human lung carcinoma) cells; assay: Cell Viability Assay (CellTiter-Glo), A549; assay type: cell-based; details: Homo sapiens, A549, 72 h
In short: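 MIA PaCa-2 or A549 cells in RPMI 1640 with 10% FBS were seeded at 1.67E+04 cells/mL and incubated overnight. Serially diluted compound was then added for 72 h at 37° C, 5% CO2. Viability read by CellTiter-Glo luminescence, normalized to DMSO, with IC50 from a 4-parameter logistic fit.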

[3] = system: MIA PaCa-2 (human pancreatic carcinoma) cells; assay: Cell Viability Assay (CellTiter-Glo), MIA PaCa-2; assay type: cell-based; details: Homo sapiens, MIA PaCa-2, 72 h
Protocol: Serially-diluted compound or DMSO was added to the cells, and plates were incubated at 37° C., 5% CO2 for 72 h. Cell viability was measured using a CellTiter-Glo® Luminescent Cell Viability Assay kit (Promega) according to the manufacturer's protocol. The luminescence signal of treated samples was normalized to DMSO control, and data were analyzed using a 4-parameter logistic model to calculate IC50 values.

Sequence of KRAS G12C (P01116 other isoform, or with tags, fused parts or gaps G12C/C118A): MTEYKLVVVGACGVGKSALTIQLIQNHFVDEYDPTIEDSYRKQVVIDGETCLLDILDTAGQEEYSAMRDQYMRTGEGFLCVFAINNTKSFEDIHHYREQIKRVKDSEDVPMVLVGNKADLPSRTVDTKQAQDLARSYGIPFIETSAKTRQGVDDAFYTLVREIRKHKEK

Compound	IC50 [1]	IC50 [2]	IC50 [3]
C=CC(=O)N1CC2(CCN(c3nc4c(c(-c5c(C)c(C)cc6cnn(C)c56)c3C)COC(C)(C)C4)C2)C1 [Example 14-40, 1-(6-(3,7,7-trimethyl-4-(1,5,6-trimethyl-1H-indazol-7-yl)-7,8-dihydro-5H-pyrano[4,3-b]pyridin-2-yl)-2,6-diazaspiro[3.4]octan-2-yl)-2-propen-1-one]	110 nM	> 5000 nM	502 nM
C=CC(=O)N1CC2(CCN(c3nc4c(c(-c5cccc6cc(O)ccc56)c3C)COC(C)(C)C4)C2)C1 [Example 14-43, 1-(6-(4-(6-hydroxy-1-naphthalenyl)-3,7,7-trimethyl-7,8-dihydro-5H-pyrano[4,3-b]pyridin-2-yl)-2,6-diazaspiro[3.4]octan-2-yl)-2-propen-1-one]	110 nM	> 5000 nM	136 nM
C=CC(=O)N1CC2(CCN(c3nc4cc(-c5c(C)nn(C)c5C)ccc4c(-c4ccccc4Cl)c3C#N)C2)C1 [Example 14-46, 4-(2-chlorophenyl)-2-(2-(2-propenoyl)-2,6-diazaspiro[3.4]octan-6-yl)-7-(1,3,5-trimethyl-1H-pyrazol-4-yl)-3-quinolinecarbonitrile]	113 nM	2380 nM	459 nM
C=CC(=O)N1CC2(CCN(c3nc4c(OC)cccc4c(-c4c(C)ccc5[nH]ncc45)c3C#N)C2)C1 [Example 14-47, 8-methoxy-4-(5-methyl-1H-indazol-4-yl)-2-(2-(2-propenoyl)-2,6-diazaspiro[3.4]octan-6-yl)-3-quinolinecarbonitrile]	482 nM	> 5000 nM	> 5000 nM
C=CC(=O)N1CC2(CCN(c3nc4c(c(-c5cc(O)c(F)cc5Cl)c3C#N)C[C@H]3C[C@@H]4C3(C)C)C2)C1 [Example 14-84, (1R,9R)-6-(2-chloro-4-fluoro-5-hydroxyphenyl)-10,10-dimethyl-4-(2-(2-propenoyl)-2,6-diazaspiro[3.4]octan-6-yl)-3-azatricyclo[7.1.1.0^2,7]undeca-2,4,6-triene-5-carbonitrile]	144 nM	> 5000 nM	2150 nM
C=CC(=O)N1CC2(CCN(c3nc4c(c(-c5ccc(F)cc5F)c3C)CC[C@@H](c3c(C)cnn3C)C4)C2)C1 [Example 14-93, 1-(6-((7R)-4-(2,4-difluorophenyl)-7-(1,4-dimethyl-1H-pyrazol-5-yl)-3-methyl-5,6,7,8-tetrahydro-2-quinolinyl)-2,6-diazaspiro[3.4]octan-2-yl)-2-propen-1-one]	134 nM	12400 nM	352 nM
C=CC(=O)N1CC2(CCN(c3nc4c(c(-c5cccc(F)c5O)c3C)CC[C@@H](c3c(C)cnn3C)C4)C2)C1 [Example 14-94, 1-(6-((7R)-7-(1,4-dimethyl-1H-pyrazol-5-yl)-4-(3-fluoro-2-hydroxyphenyl)-3-methyl-5,6,7,8-tetrahydro-2-quinolinyl)-2,6-diazaspiro[3.4]octan-2-yl)-2-propen-1-one]	228 nM	14400 nM	118 nM
C=CC(=O)N1CC2(CCN(c3nc4c(c(-c5cccc(F)c5O)c3C)CC[C@H](c3c(C)cnn3C)C4)C2)C1 [Example 14-95, 1-(6-((7S)-7-(1,4-dimethyl-1H-pyrazol-5-yl)-4-(3-fluoro-2-hydroxyphenyl)-3-methyl-5,6,7,8-tetrahydro-2-quinolinyl)-2,6-diazaspiro[3,4]octan-2-yl)-2-propen-1-one]	687 nM	15400 nM	3350 nM
C=CC(=O)N1CC2(CCN(c3nc4c(c(-c5ccccc5Cl)c3C)CCC(c3c(C)cnn3C)C4)C2)C1 [Example 14-96, 1-(6-((7R)-4-(2-chlorophenyl)-7-(1,4-dimethyl-1H-pyrazol-5-yl)-3-methyl-5,6,7,8-tetrahydro-2-quinolinyl)-2,6-diazaspiro[3.4]octan-2-yl)-2-propen-1-one|1-(6-((7S)-4-(2-chlorophenyl)-7-(1,4-dimethyl-1H-pyrazol-5-yl)-3-methyl-5,6,7,8-tetrahydro-2-quinolinyl)-2,6-diazaspiro[3.4]octan-2-yl)-2-propen-1-one]	546 nM	13400 nM	852 nM
C=CC(=O)N1CC2(CCN(c3cc4c(c(-c5c(C)ccc6[nH]ncc56)c3C)COCC4)C2)C1 [Example 14-104, 1-(6-(7-methyl-8-(5-methyl-1H-indazol-4-yl)-3,4-dihydro-1H-2-benzopyran-6-yl)-2,6-diazaspiro[3.4]octan-2-yl)-2-propen-1-one]	242 nM	> 5000 nM	210 nM

Next, values leading:

IC50 [1]	IC50 [2]	IC50 [3]	Compound
67 nM	> 5000 nM	76 nM	C=CC(=O)N1CC2(CCN(c3nc4c(c(-c5cc(O)cc6ccccc56)c3C)COC(C)(C)C4)C2)C1 [Example 14-26, 1-(6-(4-(3-hydroxy-1-naphthalenyl)-3,7,7-trimethyl-7,8-dihydro-5H-pyrano[4,3-b]pyridin-2-yl)-2,6-diazaspiro[3.4]octan-2-yl)-2-propen-1-one]
61 nM	> 5000 nM	53 nM	C=CC(=O)N1CC2(CCN(c3nc4c(c(-c5c(C)ccc6cn[nH]c56)c3C#N)C[C@H]3C[C@@H]4C3(C)C)C2)C1 [Example 14-48, (1R,9R)-10,10-dimethyl-6-(6-methyl-1H-indazol-7-yl)-4-(2-(2-propenoyl)-2,6-diazaspiro[3.4]octan-6-yl)-3-azatricyclo[7.1.1.0^2,7]undeca-2,4,6-triene-5-carbonitrile]
65 nM	> 5000 nM	1610 nM	C=CC(=O)N1CC2(CCN(c3nc4c(c(-c5cc(O)ccc5C)c3F)C[C@H]3C[C@@H]4C3(C)C)C2)C1 [Example 14-50, 1-(6-((1R,9R)-5-fluoro-6-(5-hydroxy-2-methylphenyl)-10,10-dimethyl-3-azatricyclo[7.1.1.0^2,7]undeca-2,4,6-trien-4-yl)-2,6-diazaspiro[3.4]octan-2-yl)-2-propen-1-one]
93 nM	> 5000 nM	135 nM	C=CC(=O)N1CC2(CCN(c3nc4c(c(-c5ccc(F)c6sc(N)nc56)c3C#N)COC(C)(C)C4)C2)C1 [Example 14-56, 4-(2-amino-7-fluoro-1,3-benzothiazol-4-yl)-7,7-dimethyl-2-(2-(2-propenoyl)-2,6-diazaspiro[3.4]octan-6-yl)-7,8-dihydro-5H-pyrano[4,3-b]pyridine-3-carbonitrile]
50 nM	> 5000 nM	91 nM	C=CC(=O)N1CC2(CCN(c3nc4c(c(-c5cc(O)cc6ccccc56)c3F)COC(C)(C)C4)C2)C1 [Example 14-68, 1-(6-(3-fluoro-4-(3-hydroxy-1-naphthalenyl)-7,7-dimethyl-7,8-dihydro-5H-pyrano[4,3-b]pyridin-2-yl)-2,6-diazaspiro[3.4]octan-2-yl)-2-propen-1-one]
30 nM	> 5000 nM	24 nM	C=CC(=O)N1CC2(CCN(c3nc4c(c(-c5c(C)ccc6[nH]ncc56)c3F)C[C@H]3C[C@@H]4C3(C)C)C2)C1 [Example 14-72, 1-(6-((1R,9R)-5-fluoro-10,10-dimethyl-6-(5-methyl-1H-indazol-4-yl)-3-azatricyclo[7.1.1.0^2,7]undeca-2,4,6-trien-4-yl)-2,6-diazaspiro[3.4]octan-2-yl)-2-propen-1-one]
89 nM	> 5000 nM	1190 nM	C=CC(=O)N1CC2(CCN(c3nc4c(c(-c5c(C)ccc6cn[nH]c56)c3C#N)COC(C)(C)C4)C2)C1 [Example 14-80, 7,7-dimethyl-4-(6-methyl-1H-indazol-7-yl)-2-(2-(2-propenoyl)-2,6-diazaspiro[3.4]octan-6-yl)-7,8-dihydro-5H-pyrano[4,3-b]pyridine-3-carbonitrile]
108 nM	> 5000 nM	418 nM	C=CC(=O)N1CC2(CCN(c3nc4c(c(-c5cc(O)ccc5C(F)(F)F)c3C#N)COC(C)(C)C4)C2)C1 [Example 14-86, 4-(5-hydroxy-2-(trifluoromethyl)phenyl)-7,7-dimethyl-2-(2-(2-propenoyl)-2,6-diazaspiro[3.4]octan-6-yl)-7,8-dihydro-5H-pyrano[4,3-b]pyridine-3-carbonitrile]
39 nM	> 5000 nM	68 nM	C=CC(=O)N1CC2(CCN(c3nc4c(c(-c5c(C)c(Cl)cc6cnn(C)c56)c3C)COC(C)(C)C4)C2)C1 [Example 14-87, 1-(6-(4-(5-chloro-1,6-dimethyl-1H-indazol-7-yl)-3,7,7-trimethyl-7,8-dihydro-5H-pyrano[4,3-b]pyridin-2-yl)-2,6-diazaspiro[3.4]octan-2-yl)-2-propen-1-one]
16 nM	> 5000 nM	20 nM	C=CC(=O)N1CC2(CCN(c3nc4c(c(-c5c(C)c(Cl)cc6cn[nH]c56)c3C#N)COC(C)(C)C4)C2)C1 [Example 14-91, 4-(5-chloro-6-methyl-1H-indazol-7-yl)-7,7-dimethyl-2-(2-(2-propenoyl)-2,6-diazaspiro[3.4]octan-6-yl)-7,8-dihydro-5H-pyrano[4,3-b]pyridine-3-carbonitrile]
28 nM	> 5000 nM	9 nM	C=CC(=O)N1CC2(CCN(c3nc4c(c(-c5c(C)c(Cl)cc6cnn(C)c56)c3C#N)COC(C)(C)C4)C2)C1 [Example 14-92, 4-(5-chloro-1,6-dimethyl-1H-indazol-7-yl)-7,7-dimethyl-2-(2-(2-propenoyl)-2,6-diazaspiro[3.4]octan-6-yl)-7,8-dihydro-5H-pyrano[4,3-b]pyridine-3-carbonitrile]
